{"source": "patent US20060019977A1", "about": "“Spiroheterocyclic derivative compounds and drugs comprising the compound as the active ingredient” (ONO PHARMACEUTICAL CO., LTD., priority 2002, published 2006)", "molecular_target": "T1, human CCR5 (Homo sapiens, UniProt P51681)", "T1 construct": "expressed in transfected cells", "T1 sequence (P51681 whole entry)": "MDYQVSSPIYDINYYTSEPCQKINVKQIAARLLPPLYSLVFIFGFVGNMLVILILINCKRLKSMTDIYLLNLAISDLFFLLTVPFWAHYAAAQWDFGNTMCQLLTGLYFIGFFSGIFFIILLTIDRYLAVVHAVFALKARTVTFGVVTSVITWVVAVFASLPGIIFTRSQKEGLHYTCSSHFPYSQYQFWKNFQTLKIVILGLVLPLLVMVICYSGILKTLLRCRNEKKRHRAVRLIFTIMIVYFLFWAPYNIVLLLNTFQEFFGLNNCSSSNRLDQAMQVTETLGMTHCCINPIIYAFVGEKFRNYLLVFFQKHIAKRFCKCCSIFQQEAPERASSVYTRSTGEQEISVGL", "experiment": "Inhibition test on the binding of RANTES to CCR5 (RANTES-induced transient increase of Ca ion in CCR5/CHO cells)", "assay_type": "cell-based", "conditions": "human CCR5 stably over-expressing CHO cells; 10 nM recombinant human RANTES; Ca2+ transient increase (Fura-2AM)", "protocol": "Specifically, e.g., since CCR5 is a G protein-coupled seven transmembrane type receptor, an assay system in which the effect of RANTES on the transient increase of Ca ion induced via CCR5 is measured can be carried out as an assay system for screening a compound capable of inhibiting binding of RANTES to CCR5. Since both of the T cell tropic (X4) HIV and SDF-1 bind to CXCR4, similar idea can be considered.\n(1) Isolation of Human CCR5 Gene\nHuman placental cDNA was prepared using Marathon cDNA amplification kit (Clontech). PCR primers hCCR5XbaI-F1: • 5′-[…]-3′ (SEQ ID NO:1) and hCCR5XbaI-R1: • 5′-[…]-3′ (SEQ ID NO:2) were designed based on the sequence of GenBank U54994. […]\nThe thus established human CCR5 stably over-expressing CHO cell (CCR5/CHO cell) was suspended in Ham's F-12 medium containing FBS (10%) and dispensed in […] portions into a 96 well plate. […] Transient increase in the intracellular Ca^2+ concentration induced by the human RANTES was measured using a Ca^2+ detector for 96 well use (Hamamatsu Photonics), and inhibition ratio (%) of the test compound was calculated by the following calculation formula. Inhibition ratio=(Ec−Ea)/Ec×100 • Ec: measured value of Ca^2+ transient increase by RANTES • Ea: measured value of Ca^2+ transient increase by RANTES when a test compound was added", "note": "Where a name gives a salt, the structure may show the parent alone."}
{"smiles": "CCCCN1C(=O)C2(CCCC2)NC(=O)C12CCN(Cc1ccc(Oc3ccc(C(=O)NC)cc3)cc1)CC2", "note": "[Example 5, 1-butyl-2,5-dioxo-3,3-butano-9-[4-(4methylcarbamoylphenoxy)benzyl]-1,4,9-triazaspiro[5.5]undecane hydrochloride]", "values": [{"measurement": "IC50", "result": 12, "unit": "nM"}]}
{"smiles": "CCCCN1C(=O)[C@@H]2CSCN2C(=O)C12CCN(Cc1ccc(Oc3ccccc3)cc1)CC2", "note": "[Example 1(1), (3R)-1-butyl-2,5-dioxo-3,4-(2-thiapropano)-9-[(4-phenoxyphenyl)methyl]-1,4,9-triazaspiro[5.5]undecane hydrochloride]", "values": [{"measurement": "IC50", "result": 740, "unit": "nM"}]}
